Source: the supplement of paper PMC10307832

How the values were obtained:
Test in all cases: relative viability (nuclei count vs DMSO), 5 days (fraction); higher = more cells survive
RU-SKI 43 + Lapatinib = compound: CC[C@@H](C)CNCC(=O)N1CCC2=C([C@@H]1COC3=CC=CC(=C3)C)C=CS2 [RU-SKI 43] + CS(=O)(=O)CCNCc1ccc(-c2ccc3ncnc(Nc4ccc(OCc5cccc(F)c5)c(Cl)c4)c3c2)o1 [Lapatinib] (partner 2 µM)
Method in brief: (§1)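 Dosing by pin tool came one day after lung cancer cell lines were seeded in 1536-well plates, using either one drug or a fixed anchor-drug dose plus five library-drug doses (not always all listed) in √10 steps. After 5 days, nuclei were counted on 4× images. Relative viability is treated-well nuclei count divided by vehicle-well nuclei count, and values are medians of duplicate plates.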

MK-8033 + Olaparib = compound: Cn1cc(-c2cnc3ccc4ccc(CS(=O)(=O)NCc5ccccn5)cc4c(=O)c3c2)cn1 [MK-8033] + O=C(c1cc(Cc2n[nH]c(=O)c3ccccc23)ccc1F)N1CCN(C(=O)C2CC2)CC1 [Olaparib] (partner 8 µM)
Method in brief: as §1

RU-SKI 43 + AZD7762 = compound: CC[C@@H](C)CNCC(=O)N1CCC2=C([C@@H]1COC3=CC=CC(=C3)C)C=CS2 [RU-SKI 43] + NC(=O)Nc1cc(-c2cccc(F)c2)sc1C(=O)N[C@H]1CCCNC1 [AZD7762] (partner 0.2 µM)
Method in brief: as §1

MK-8033 + Trametinib = compound: Cn1cc(-c2cnc3ccc4ccc(CS(=O)(=O)NCc5ccccn5)cc4c(=O)c3c2)cn1 [MK-8033] + CC(=O)Nc1cccc(-n2c(=O)n(C3CC3)c(=O)c3c(Nc4ccc(I)cc4F)n(C)c(=O)c(C)c32)c1 [Trametinib] (partner 0.02 µM)
Method in brief: as §1

Cell Line | relative viability (RU-SKI 43 + Lapatinib; first compound 0.1 µM) | relative viability (RU-SKI 43 + Lapatinib; first compound 0.3162 µM) | relative viability (RU-SKI 43 + Lapatinib; first compound 1 µM) | relative viability (RU-SKI 43 + Lapatinib; first compound 3.162 µM) | relative viability (RU-SKI 43 + Lapatinib; first compound 10 µM) | relative viability (MK-8033 + Olaparib; first compound 0.02 µM) | relative viability (MK-8033 + Olaparib; first compound 0.06325 µM) | relative viability (MK-8033 + Olaparib; first compound 0.2 µM) | relative viability (MK-8033 + Olaparib; first compound 0.6325 µM) | relative viability (MK-8033 + Olaparib; first compound 2 µM) | relative viability (RU-SKI 43 + AZD7762; first compound 0.1 µM) | relative viability (RU-SKI 43 + AZD7762; first compound 0.3162 µM) | relative viability (RU-SKI 43 + AZD7762; first compound 1 µM) | relative viability (RU-SKI 43 + AZD7762; first compound 3.162 µM) | relative viability (RU-SKI 43 + AZD7762; first compound 10 µM) | relative viability (MK-8033 + Trametinib; first compound 0.02 µM) | relative viability (MK-8033 + Trametinib; first compound 0.06325 µM) | relative viability (MK-8033 + Trametinib; first compound 0.2 µM) | relative viability (MK-8033 + Trametinib; first compound 0.6325 µM) | relative viability (MK-8033 + Trametinib; first compound 2 µM)
IA-LM | 0.717 | 0.956 | 1.02 | 0.79 | 0.731 | 0.749 | 0.764 | 0.786 | 0.756 | 0.767 |  |  |  |  |  |  |  |  |  | 
LCLC-103H |  |  |  |  |  | 0.731 | 0.778 | 0.737 | 0.729 | 0.815 | 0.832 | 0.804 | 0.788 | 0.821 | 0.763 | 0.637 | 0.705 | 0.673 | 0.672 | 0.696
NCI-H441 |  |  |  |  |  | 0.628 | 0.446 | 0.56 | 0.529 | 0.59 | 0.795 | 1.55 | 1.23 | 1.22 | 1.17 | 0.376 | 0.343 | 0.391 | 0.487 | 0.437
NCI-H520 | 0.897 | 0.986 | 0.996 | 0.951 | 0.756 | 0.306 | 0.326 | 0.357 | 0.307 | 0.315 |  |  |  |  |  | 0.615 | 0.565 | 0.56 | 0.795 | 0.629
NCI-H522 |  |  |  |  |  | 0.544 | 0.491 | 0.607 | 0.685 | 0.632 | 0.918 | 0.984 | 1.04 | 0.859 | 0.853 | 0.72 | 0.701 | 0.669 | 0.657 | 0.766
NCI-H661 | 0.465 | 0.525 | 0.511 | 0.434 | 0.421 | 0.726 | 0.679 | 0.774 | 0.71 | 0.675 |  |  |  |  |  | 0.544 | 0.498 | 0.577 | 0.57 | 0.515
NCI-H1299 | 0.965 | 1.03 | 1.05 | 0.941 | 0.95 | 1.01 | 0.967 | 0.927 | 1 | 0.982 |  |  |  |  |  |  |  |  |  | 
NCI-H1563 | 0.871 | 0.874 | 0.879 | 0.913 | 0.765 |  |  |  |  |  |  |  |  |  |  |  |  |  |  | 
NCI-H1648 |  |  |  |  |  | 0.841 |  | 0.748 | 0.765 | 0.574 | 0.502 | 0.626 | 0.656 | 0.694 | 0.628 | 0.499 |  | 0.408 | 0.499 | 0.432
NCI-H1650 | 0.696 | 0.81 | 0.885 | 0.858 | 0.637 | 0.808 | 0.646 | 0.688 | 0.797 | 0.713 |  |  |  |  |  | 0.568 | 0.637 | 0.53 | 0.625 | 0.54
NCI-H1703 |  | 1.86 | 1.11 | 1.16 | 0.637 | 0.385 | 0.304 | 0.524 | 0.336 | 0.598 | 0.177 | 0.137 | 0.134 | 0.11 | 0.12 |  |  |  |  | 
NCI-H2009 | 0.899 | 0.837 | 0.901 | 0.964 | 0.905 | 0.716 | 0.683 | 0.632 | 0.712 | 0.707 |  |  |  |  |  | 0.282 | 0.255 | 0.215 | 0.291 | 0.238
NCI-H2023 | 0.773 | 0.808 | 1.05 | 0.849 | 0.726 | 0.534 | 0.415 | 0.439 | 0.493 | 0.396 |  |  |  |  |  | 0.552 | 0.511 | 0.453 | 0.475 | 0.366
NCI-H2228 | 1.05 | 1.3 | 1.45 | 1.29 | 0.891 | 0.79 | 0.568 | 0.52 | 0.865 | 0.619 |  |  |  |  |  | 0.278 | 0.403 | 0.435 | 0.341 | 0.582
NCI-H2342 |  |  |  |  |  | 0.448 | 0.393 | 0.507 | 0.424 | 0.418 | 0.474 |  | 0.564 | 0.468 | 0.477 | 0.83 | 0.773 | 0.827 | 0.999 | 0.83
SK-LU-1 | 0.849 | 1.02 | 0.931 | 0.834 | 0.929 | 0.435 | 0.471 | 0.426 | 0.497 | 0.394 |  |  |  |  |  | 0.484 | 0.482 | 0.437 | 0.445 | 0.468
SK-MES-1 | 0.471 | 0.49 | 0.519 | 0.51 | 0.422 | 0.682 | 0.658 | 0.677 | 0.76 | 0.717 |  |  |  |  |  | 0.44 | 0.478 | 0.539 | 0.583 | 0.534
SW 900 |  |  |  |  |  | 0.851 | 0.876 | 0.852 | 0.788 | 0.812 | 0.523 | 0.612 | 0.571 | 0.588 | 0.58 | 0.762 | 0.583 | 0.612 | 0.936 | 0.848
SW 1573 | 1.27 | 1.11 | 1.07 | 1.11 | 1.16 | 0.537 | 0.479 | 0.418 | 0.567 | 0.393 |  |  |  |  |  | 0.471 | 0.504 | 0.573 | 0.582 | 0.568
